Assay results: ChEMBL document CHEMBL1201862, “PubChem BioAssay data set” (2004)
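48-hour exposure; five concentrations; linearly interpolated endpoints. GI50 is the concentration that inhibits growth by half.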 The source made the active and inactive calls. No stated cut-off is given here; in the data, active = GI50 up to about 1.1 µM and inactive = higher.

Experiments:
Experiment in all cases: inhibition of tumour cell growth, NCI panel, 48 h
MDA-MB-231 = system: MDA-MB-231
HCT-116 = system: HCT-116
LOX IMVI = system: LOX IMVI
NCI-H226 = system: NCI-H226
ACHN = system: ACHN
NCI-H460 = system: NCI-H460
MOLT-4 = system: MOLT-4
PC-3 = system: PC-3
CCRF-CEM = system: CCRF-CEM
M14 = system: M14
HL-60 = system: HL-60
BT-549 = system: BT-549
T47D = system: T47D
SW-620 = system: SW-620
MDA-MB-435 = system: MDA-MB-435
NCI/ADR-RES = system: NCI/ADR-RES
786-0 = system: 786-0
SF-295 = system: SF-295
UACC-257 = system: UACC-257
HT-29 = system: HT-29
OVCAR-4 = system: OVCAR-4
Hs-578T = system: Hs-578T
CAKI-1 = system: CAKI-1
Malme-3M = system: Malme-3M
K562 = system: K562
SF-539 = system: SF-539
HOP-62 = system: HOP-62
UO-31 = system: UO-31
OVCAR-5 = system: OVCAR-5
SK-MEL-5 = system: SK-MEL-5
TK-10 = system: TK-10
UACC-62 = system: UACC-62
HOP-92 = system: HOP-92
SK-MEL-2 = system: SK-MEL-2
KM12 = system: KM12
SK-MEL-28 = system: SK-MEL-28
NCI-H23 = system: NCI-H23
NCI-H522 = system: NCI-H522
DU-145 = system: DU-145
HCT-15 = system: HCT-15
SNB-19 = system: SNB-19
IGROV-1 = system: IGROV-1
EKVX = system: EKVX
A549 = system: A549
OVCAR-8 = system: OVCAR-8
OVCAR-3 = system: OVCAR-3
A498 = system: A498
SNB-75 = system: SNB-75
SN12C = system: SN12C
MCF7 = system: MCF7
SK-OV-3 = system: SK-OV-3
RPMI-8226 = system: RPMI-8226
COLO 205 = system: COLO 205
RXF 393 = system: RXF 393
U-251 = system: U-251
SF-268 = system: SF-268
SR = system: SR
HCC 2998 = system: HCC 2998
MDA-N = system: MDA-N

Measured: GI50

O=C(O)CNc1ccc2c(c1)Cc1cc(Br)ccc1-2
inactive: MDA-MB-231 19.7 µM | HCT-116 18.5 µM | LOX IMVI 26.6 µM | NCI-H226 21.2 µM | ACHN 33.1 µM | NCI-H460 21.8 µM | PC-3 27.2 µM | CCRF-CEM 22.1 µM | M14 21.8 µM | HL-60 23.4 µM | BT-549 23.3 µM | T47D 20.4 µM | SW-620 24.2 µM | MDA-MB-435 15.3 µM | NCI/ADR-RES 25.6 µM | 786-0 39.6 µM | SF-295 24.5 µM | UACC-257 22.8 µM | HT-29 27.1 µM | OVCAR-4 20.1 µM | Hs-578T 4.65 µM | CAKI-1 19.5 µM | Malme-3M 20.6 µM | K562 9.29 µM | SF-539 23.7 µM | HOP-62 > 44.6 µM | UO-31 36 µM | OVCAR-5 27.5 µM | SK-MEL-5 6.55 µM | TK-10 31.1 µM | UACC-62 17.4 µM | HOP-92 25.6 µM | SK-MEL-2 26 µM | KM12 9.57 µM | SK-MEL-28 31.3 µM | NCI-H23 18 µM | NCI-H522 18.5 µM | DU-145 25.9 µM | SNB-19 24.3 µM | IGROV-1 18 µM | EKVX 5.2 µM | A549 21.3 µM | OVCAR-8 23.9 µM | OVCAR-3 28.5 µM | A498 22 µM | SNB-75 34.6 µM | SN12C 22.7 µM | MCF7 > 38.4 µM | SK-OV-3 26.5 µM | RPMI-8226 19.9 µM | COLO 205 21.1 µM | RXF 393 31 µM | U-251 26.6 µM | SF-268 28.5 µM
active: MOLT-4 0.746 µM
31.1 µM: HCT-15

COc1ccc2sc(-n3nc4ccccc4c3Nc3nc4ccc(OC)cc4s3)nc2c1
10.5 µM: HCT-15
inactive: MDA-MB-231 2.07 µM | HCT-116 1.8 µM | LOX IMVI 5.47 µM | NCI-H226 2.9 µM | ACHN 2.6 µM | NCI-H460 2.22 µM | PC-3 2.89 µM | CCRF-CEM 96.4 µM | M14 7.24 µM | BT-549 2.13 µM | SW-620 7.5 µM | MDA-MB-435 3.24 µM | NCI/ADR-RES 2.26 µM | 786-0 1.64 µM | SR 23.4 µM | SF-295 3.29 µM | UACC-257 4.1 µM | HT-29 3.59 µM | OVCAR-4 1.86 µM | Hs-578T 1.46 µM | CAKI-1 1.28 µM | Malme-3M 3.8 µM | K562 1.59 µM | HOP-62 1.79 µM | UO-31 7.16 µM | OVCAR-5 2.88 µM | SK-MEL-5 2.26 µM | TK-10 2.62 µM | UACC-62 2.95 µM | HOP-92 3.12 µM | SK-MEL-2 15 µM | KM12 3.99 µM | SK-MEL-28 7.67 µM | NCI-H23 1.73 µM | NCI-H522 2.52 µM | DU-145 2.98 µM | HCC 2998 1.43 µM | SNB-19 2.33 µM | IGROV-1 2.02 µM | EKVX 3.52 µM | A549 3.77 µM | OVCAR-8 1.29 µM | OVCAR-3 1.79 µM | SNB-75 3 µM | SN12C 3.07 µM | MCF7 6.47 µM | SK-OV-3 1.94 µM | COLO 205 14.9 µM | RXF 393 11 µM | U-251 2.76 µM | SF-268 5.01 µM
active: T47D 1 µM | SF-539 0.92 µM | A498 0.873 µM | RPMI-8226 0.887 µM

Cn1cnc([N+](=O)[O-])c1Sc1nncc2[nH]cnc12
> 100 µM: HCT-15
inactive: MDA-MB-231 > 100 µM | HCT-116 > 100 µM | LOX IMVI > 100 µM | NCI-H226 > 100 µM | ACHN > 100 µM | MOLT-4 > 100 µM | PC-3 > 100 µM | CCRF-CEM > 100 µM | M14 > 100 µM | HL-60 > 100 µM | BT-549 > 100 µM | T47D > 100 µM | SW-620 > 100 µM | MDA-MB-435 > 100 µM | NCI/ADR-RES > 100 µM | 786-0 > 100 µM | SR > 100 µM | SF-295 > 100 µM | UACC-257 > 100 µM | HT-29 > 100 µM | OVCAR-4 > 100 µM | CAKI-1 > 100 µM | Malme-3M 28.8 µM | K562 > 100 µM | MDA-N > 100 µM | SF-539 > 100 µM | HOP-62 > 100 µM | UO-31 > 100 µM | OVCAR-5 > 100 µM | SK-MEL-5 > 100 µM | TK-10 > 100 µM | UACC-62 > 100 µM | HOP-92 > 100 µM | SK-MEL-2 > 100 µM | KM12 > 100 µM | SK-MEL-28 > 100 µM | NCI-H23 > 100 µM | NCI-H522 > 100 µM | HCC 2998 > 100 µM | SNB-19 7.82 µM | IGROV-1 > 100 µM | EKVX > 100 µM | A549 > 100 µM | OVCAR-8 > 100 µM | OVCAR-3 > 100 µM | A498 > 100 µM | SNB-75 > 100 µM | SN12C > 100 µM | MCF7 > 100 µM | SK-OV-3 > 100 µM | RPMI-8226 > 100 µM | COLO 205 > 100 µM | U-251 > 100 µM
